Data from patent publication US20220213174A1, “IVIG TREATMENTS FOR SUDDEN SONSORINEURAL HEARING LOSS” (InnoMed Technologies, Inc., priority 2021, published 2022).

Columns and labels:
[1] = tested on: Hearing Loss, including Sudden Sensorineural Healing Loss; settings: prednisolone 60 mg per day for 5 days then reduced, or 50 mg per day for 10 days; cited from earlier work
[2] = tested on: Sudden Sensorineural Healing Loss; assay: Example 1: treatment of a patient suffering from hearing loss; type: in vivo, human; settings: person; 60 mg/day prednisone therapy alone; two weeks
Description: The patient, a person was diagnosed by their doctor after claiming they are suffering from unexplained hearing loss. The patient's doctor diagnosed the patient as suffering from Sudden Sensorineural Healing Loss. […] Two weeks after administration, the patient is co-administered a single dose of IVIG at 2 g/kg and 60 mg prednisone and Sudden Sensorineural Healing Loss related symptoms […].

[3] = tested on: Sudden Sensorineural Hearing Loss; assay: Example 2: treatment of a patient suffering from hearing loss; type: in vivo, human; settings: person; 60 mg/day prednisone therapy alone for a month
Description: The patient, a person is diagnosed by their doctor as suffering from Sudden Sensorineural Hearing Loss. […] The patient is then administered IVIG at 2 g/kg and 60 mg prednisone. Within three weeks, the Sudden Sensorineural Hearing Loss is resolved by about 80%. The patient is then administered a second dose of IVIG at 2 g/kg and 60 mg. prednisone. Within two weeks, the patient is resolved by about 95%. A week later, the patient's Sudden Sensorineural Hearing Loss symptoms have disappeared and the patient presents as normal.

Compound | outcome and time to complete recovery in patients with Hearing Loss [1] | reduction in the symptoms they suffer [2] | resolution of Sudden Sensorineural Hearing Loss [3]
methylprednisone | improves outcome |  | 
C[C@]12C=CC(=O)C=C1CC[C@@H]1[C@@H]2C(=O)C[C@@]2(C)[C@H]1CC[C@]2(O)C(=O)CO [prednisone] |  | no reduction | did not resolve
C[C@]12C=CC(=O)C=C1CC[C@@H]1[C@@H]2[C@@H](O)C[C@@]2(C)[C@H]1CC[C@]2(O)C(=O)CO [prednisolone] | improves outcome |  | 
